Data reported in patent US20240315990A1, “Adelmidrol For Use In Diseases Characterized By Insufficient Agonism Of PPAR-GAMMA Receptor” (Epitech Group S.P.A., priority 2016, published 2024).

What was measured:
[1] = test system: bleomycin-induced lung edema; test: bleomycin-induced lung lesion, lung edema (wet vs dry lung weight); assay type: in vivo, CD1 male mice
Protocol: CD1 male mice ((CD1(ICR) mice (25-35 g; Harlan Nossan, Italy) were accommodated in a controlled environment and fed with standard food and water. Using a catheter (tracheotomy tube), the mice received a single intratracheal instillation of physiological solution (0.9%) or saline containing bleomycin sulfate (0.1 U/mouse) in a final volume of 100 μL, and the liquid was immediately followed by 300 μL of air in order to also ensure the distribution thereof in the distal airways. The weight of the wet lungs was calculated after 28 days upon injecting bleomycin by means of careful excision of the lung from the adjacent tissues. The lungs were exposed for 48 hours at 180° C. and the dry weight was then assessed. The lung water content was calculated as wet weight-to-dry weight ratio. In order to assess the degree of the existing lung edema, at the end of the experiment, even in untreated animals, the comparison of the wet lung weight to the lung weight after water removal was carried out. The results are shown in the chart in FIG. 6.

[2] = test system: TNF-α and IL1β; test: bleomycin-induced lung lesion, dosage of inflammatory cytokines TNF-α and IL1β; assay type: in vivo, CD1 male mice; settings: BLM-treated mice
Protocol: (§1) CD1 male mice ((CD1(ICR) mice (25-35 g; Harlan Nossan, Italy) were accommodated in a controlled environment and fed with standard food and water.
(§2) Using a catheter (tracheotomy tube), the mice received a single intratracheal instillation of physiological solution (0.9%) or saline containing bleomycin sulfate (0.1 U/mouse) in a final volume of 100 μL, and the liquid was immediately followed by 300 μL of air in order to also ensure the distribution thereof in the distal airways.
TNF-α and IL1β are also regarded as the biochemical markers of inflammation and fibrosis of the lung. The results obtained are shown in the chart in FIG. 9.

[3] = test system: myeloperoxidase (MPO); test: myeloperoxidase (MPO) activity in the bowel of DNBS-treated animals; assay type: in vivo, rat; settings: Adelmidrol 10 mg/kg orally
Protocol: The determination of the activity of the enzyme myeloperoxidase (MPO), which is considered an important marker of neutrophil activity in the bowel, fully confirms the effect of Adelmidrol on the colonic mucosa. The test was carried out by the method described in the literature (Morampudi V. et al. Journal of Visualized Experiments—February 2014; 84:1-8) on DBNS-treated animals, not treated animals, or animals orally treated with Adelmidrol (10 mg/kg).
The results are shown in the chart in FIG. 4.

[4] = test system: carrageenan-induced rat paw edema; test: carrageenan-induced rat paw edema, foot volume by plethysmometer; assay type: in vivo
Protocol: The experimental model of carrageenan-induced rat paw edema was used.
The experimental model of carrageenan-induced paw edema was induced by sub-plantarily injecting a solution of carrageenan (containing 50 μl of sterile saline containing 1% carrageenan) in the animal's right paw (rat).
The foot volume was measured at specific time intervals by means of a plethysmometer (Ugo Basile, Milan, Italy). The increase in plantar volume was assessed as the difference between the value obtained at the specific time intervals and the volume at baseline (time 0) measured immediately before the administration of carrageenan.
The rats (10 animals per group) were divided into the following experimental groups: • CAR+physiological solution; • CAR+Adelmidrol (3 mg/kg); Adelmidrol was administered i.p. when injecting CAR; • CAR+Adelmidrol (10 mg/kg); Adelmidrol was administered i.p. when injecting CAR.

[5] = test system: DNBS-induced bowel tissue lesion; test: DNBS-induced bowel tissue lesion, microscope lesion score; assay type: in vivo; settings: rat, DNBS 15 mg intrarectal, Adelmidrol 10 mg/kg per os in 2% CMC
Protocol: Rats were anesthetized with ethyl ether in order to ensure the animals' waking up after 4-5 minutes. 60 mg/mL DNBS was dissolved in 50% ethanol in water. An amount of 0.25 ml of alcoholic solution (containing 15 mg of DNBS) was instilled to each animal, using an 8 cm long intrarectal catheter made of silicone so as to reach […]. During the experiment, the possible ejection of the solution from the rectum when the animal awoke was carefully monitored, taking it into account in the final assessment. The assessment of the bowel lesion was performed by taking, upon sacrifice of the animal, the entire bowel which was adequately washed with physiological solution and immediately examined under a microscope. Adelmidrol was administered per os through a gastric cannula in an amount of 10 mg/kg dissolved in aqueous solution containing 2% CMC (carboxymethylcellulose). The bowel tissue lesion was quantized through microscope inspection by two different observers. […]

[6] = bleomycin-induced lung lesion, weight change in the animals; assay type: in vivo, CD1 male mice; settings: mice, bleomycin (BLM) + Adelmidrol vs BLM + inert vehicle
Protocol: as §1, §2
All procedures related to the treatment of animals were performed in accordance with the guidelines approved by the Institutional Committee (IACUC) following the guidelines of the Association for Assessment and Accreditation of Laboratory Animal Care (AAALAC). While being monitored, the animals were inspected for any adverse effects produced by the lung lesion. An assessment of the water and food consumption and consequently of the body weight (analyzed daily by weighing the animals) was carried out (Mullane K M et al, 1985, supra).
The animals belonging to the group treated with bleomycin (BLM)+inert vehicle and those belonging to that treated with BLM and Adelmidrol in an inert vehicle were weighed, and the weight change was calculated on the 3rd and 8th day after the start of the treatment with BLM. The results are shown in the chart in FIG. 5.

## O=C(CCCCCCCC(=O)NCCO)NCCO [Adelmidrol, azelaic acid diethanolamide]
[1]; mice not treated with BLM
  difference in lung weight between fresh organ and dried organ (FIG. 6): does not change the difference in lung weight between fresh organ and dried organ
[1]; mice treated with BLM and Adelmidrol vs BLM and inert vehicle
  difference in lung weight between fresh organ and dried organ (FIG. 6): considerably lower
[2]
  IL1β level in the lung (FIG. 9): considerably reduces the levels of both inflammatory cytokines
  TNF-α level in the lung (FIG. 9): considerably reduces the levels of both inflammatory cytokines
[3]
  MPO activity in the bowel, marker of neutrophil activity (FIG. 4): anti-inflammatory effect on the bowel tissue
[4]; 3 and 10 mg/kg i.p.
  effect on carrageenan-induced edema (in words): reduction of the carrageenan-induced edema with a dose-dependent action
[4]; Adelmidrol 3 mg/kg i.p. when injecting CAR, 0 min.
  paw edema as a percentage with respect to the edema produced by carrageenan alone: 101.2 percentage
[4]; Adelmidrol 3 mg/kg i.p. when injecting CAR, 30 min
  paw edema as a percentage with respect to the edema produced by carrageenan alone: 86.7 percentage
[4]; Adelmidrol 3 mg/kg i.p. when injecting CAR, 1 hr
  paw edema as a percentage with respect to the edema produced by carrageenan alone: 71.9 percentage
[4]; Adelmidrol 3 mg/kg i.p. when injecting CAR, 2 hr
  paw edema as a percentage with respect to the edema produced by carrageenan alone: 72.3 percentage
[4]; Adelmidrol 3 mg/kg i.p. when injecting CAR, 3 hr
  paw edema as a percentage with respect to the edema produced by carrageenan alone: 69.8 percentage
[4]; Adelmidrol 3 mg/kg i.p. when injecting CAR, 4 hr
  paw edema as a percentage with respect to the edema produced by carrageenan alone: 67.2 percentage
[4]; Adelmidrol 3 mg/kg i.p. when injecting CAR, 5 hr
  paw edema as a percentage with respect to the edema produced by carrageenan alone: 67.4 percentage
[4]; Adelmidrol 10 mg/kg i.p. when injecting CAR, 0 min.
  paw edema as a percentage with respect to the edema produced by carrageenan alone: 102.6 percentage
[4]; Adelmidrol 10 mg/kg i.p. when injecting CAR, 30 min
  paw edema as a percentage with respect to the edema produced by carrageenan alone: 81.6 percentage
[4]; Adelmidrol 10 mg/kg i.p. when injecting CAR, 1 hr
  paw edema as a percentage with respect to the edema produced by carrageenan alone: 68.7 percentage
[4]; Adelmidrol 10 mg/kg i.p. when injecting CAR, 2 hr
  paw edema as a percentage with respect to the edema produced by carrageenan alone: 63.8 percentage
[4]; Adelmidrol 10 mg/kg i.p. when injecting CAR, 3 hr
  paw edema as a percentage with respect to the edema produced by carrageenan alone: 53.6 percentage
[4]; Adelmidrol 10 mg/kg i.p. when injecting CAR, 4 hr
  paw edema as a percentage with respect to the edema produced by carrageenan alone: 49.5 percentage
[4]; Adelmidrol 10 mg/kg i.p. when injecting CAR, 5 hr
  paw edema as a percentage with respect to the edema produced by carrageenan alone: 49.5 percentage
[5]
  bowel tissue lesion, score 0 to 8 by microscope inspection (FIG. 2, FIG. 3): important, significant protection of the colonic mucosa
[6]
  body weight change on the 3rd and 8th day after start of BLM (FIG. 5): significant body weight gain
